Values quoted from earlier work as cited in patent publication US11026933B2, “Compositions and methods for treatment of cancer” (Children's Hospital Medical Center, priority 2016, dated 2021).

Legend:
FOXM1 [1] = biological target: T1, FOXM1 (Homo sapiens, UniProt Q08050); settings: Gormally et al., 2014
T1 sequence (Q08050 1-763): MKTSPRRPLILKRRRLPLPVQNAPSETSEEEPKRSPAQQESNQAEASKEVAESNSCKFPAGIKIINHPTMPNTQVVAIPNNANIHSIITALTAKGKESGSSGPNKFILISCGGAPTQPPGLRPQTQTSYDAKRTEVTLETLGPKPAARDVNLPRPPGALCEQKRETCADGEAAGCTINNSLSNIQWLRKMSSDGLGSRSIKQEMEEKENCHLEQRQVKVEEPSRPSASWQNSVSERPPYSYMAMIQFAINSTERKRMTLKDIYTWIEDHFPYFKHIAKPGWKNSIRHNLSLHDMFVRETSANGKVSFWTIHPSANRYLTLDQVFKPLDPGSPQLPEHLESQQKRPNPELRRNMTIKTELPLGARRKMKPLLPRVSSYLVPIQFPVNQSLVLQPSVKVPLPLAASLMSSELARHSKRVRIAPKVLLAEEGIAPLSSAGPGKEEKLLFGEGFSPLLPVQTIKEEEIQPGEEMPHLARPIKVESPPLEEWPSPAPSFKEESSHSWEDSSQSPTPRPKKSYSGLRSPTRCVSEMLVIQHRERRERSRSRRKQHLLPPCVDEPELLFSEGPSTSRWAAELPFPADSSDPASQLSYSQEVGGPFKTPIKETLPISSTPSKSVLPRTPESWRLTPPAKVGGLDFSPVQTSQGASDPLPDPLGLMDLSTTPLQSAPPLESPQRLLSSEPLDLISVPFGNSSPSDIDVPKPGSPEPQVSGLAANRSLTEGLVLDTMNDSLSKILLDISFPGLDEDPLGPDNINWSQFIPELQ

FOXM1 [2] = biological target: T1, FOXM1; settings: Halasi and Gartel, 2013
FOXM1 [3] = biological target: T1, FOXM1; settings: Halasi and Gartel, 2013; remark: listed apart in the source
proteasome = settings: Halasi and Gartel, 2013

FOXM1 binding to DNA (FOXM1 [1]) | binding to FOXM1 protein (FOXM1 [1]) | SMILES | inhibition of FOXM1 in cultured tumor cells (FOXM1 [2]) | inhibition of FOXM1 in mouse tumor models (FOXM1 [3]) | proteasome inhibition (proteasome)
blocked FOXM1 binding to DNA | directly bound to FOXM1 protein | Nc1c(C(=O)Nc2ccc(F)cc2)sc2nc(-c3cccs3)cc(C(F)(F)F)c12 [FDI-6] | – | – | –
– | – | C=C(NC(=O)C(=C)NC(=O)c1csc(C2=N[C@@H]3c4csc(n4)[C@H]4NC(=O)c5csc(n5)[C@H]([C@](C)(O)[C@@H](C)O)NC(=O)[C@H]5CSC(=N5)/C(=C/C)NC(=O)[C@H]([C@@H](C)O)NC(=O)c5csc(n5)[C@]3(CC2)NC(=O)[C@H](C)NC(=O)C(=C)NC(=O)C(=C)NC(=O)[C@H](C(C)C)N[C@@H]2C=Cc3c([C@H](C)O)cc(nc3[C@H]2O)C(=O)O[C@@H]4C)n1)C(N)=O [Siomycin A] | inhibited FOXM1 | inhibited FOXM1 | found to be proteasome inhibitors
– | – | C=C(NC(=O)C(=C)NC(=O)c1csc(C2=N[C@@H]3c4csc(n4)[C@H]4NC(=O)c5csc(n5)[C@H]([C@](C)(O)[C@@H](C)O)NC(=O)[C@H]5CSC(=N5)/C(=C/C)NC(=O)[C@H]([C@@H](C)O)NC(=O)c5csc(n5)[C@]3(CC2)NC(=O)[C@H](C)NC(=O)C(=C)NC(=O)[C@H](C)NC(=O)[C@H]([C@@H](C)CC)N[C@@H]2C=Cc3c([C@H](C)O)cc(nc3[C@H]2O)C(=O)O[C@@H]4C)n1)C(N)=O [thiostrepton] | inhibited FOXM1 | inhibited FOXM1 | found to be proteasome inhibitors
